Measured values reported in US11275078B2, “Method and system for sensing” (Ramot at Tel-Aviv University Ltd., priority 2015, dated 2022).

Key:
Type in all cases: cell-based, Human
Jurkat cells [1] = experiment: 24-hour monitoring of extracellular ROS levels of drug-treated Jurkat cells using the nanowire biosensor; conditions: t=6 hours, normalized by number of live cells
Experimental: For measurements of cellular metabolites/activity, cells were cultured in the chip, namely, in the culture compartment thereof (see, for example, FIG. 1A), while placing the chip in an incubator during measurements. A sample was introduced to the sensing compartment at 20 μl min^-1 by using a syringe pump. Human T lymphocytes, Jurkat (TIB-152, ATCC), were cultured and incubated at 37° C. under a humidified 5% CO2 atmosphere. The culture medium used was RPMI 1640 medium (52400, GIBCO) with 10% fetal bovine serum (FBS; 04-001-1A, Biological Industry) and 1% penicillin/streptomycin (15140, GIBCO). During experiments, cells were re-suspended in phenol red-free medium (11835-063, GIBCO) in the presence or absence of a drug, either methotrexate hydrate (MTX; […], SIGMA) or 2-deoxy-D-glucose (2DG; […], SIGMA), at a density of 1×10^6 cells/ml. Cellular samples were dispensed into the wells of the sensing chip (see FIGS. 1A and 1B) in an incubator. 24-hour monitoring of metabolic activity of drug-treated Jurkat cells by measuring extracellular ROS levels using the nanowire biosensor, was performed and the obtained data is presented in FIGS. 6A-G. Measured ROS levels were normalized by the number of live cells.

Jurkat cells [2] = experiment: Cell proliferation rate / viability of drug-treated Jurkat cells (trypan blue, hemocytometer); conditions: for cell viability: 24-hour viability observation
Experimental: Human T lymphocytes, Jurkat (TIB-152, ATCC), were cultured and incubated at 37° C. under a humidified 5% CO2 atmosphere. The culture medium used was RPMI 1640 medium (52400, GIBCO) with 10% fetal bovine serum (FBS; 04-001-1A, Biological Industry) and 1% penicillin/streptomycin (15140, GIBCO). During experiments, cells were re-suspended in phenol red-free medium (11835-063, GIBCO) in the presence or absence of a drug, either methotrexate hydrate (MTX; […], SIGMA) or 2-deoxy-D-glucose (2DG; […], SIGMA), at a density of 1×10^6 cells/ml. Cell viability was estimated by using a hemocytometer to count trypan blue-stained cells. Relative cell count, presented in FIGS. 6B and 6E-6F, is a ratio of the cell count at t=24 hours to the initial cell count.

Jurkat cells [3] = experiment: Extracellular lactate level of 2DG-treated Jurkat cells (lactate oxidase, nanowire biosensor); conditions: after 24 hours
Experimental: For lactate sensing, 0.1 unit/ml of lactate oxidase (LOX; L0638, SIGMA) was added in phenol red-free medium to convert lactate to pyruvate and H2O2 before lactate reaches the FET array (as depicted in FIG. 1D).
During experiments, cells were re-suspended in phenol red-free medium (11835-063, GIBCO) in the presence or absence of a drug, either methotrexate hydrate (MTX; M8407, SIGMA) or 2-deoxy-D-glucose (2DG; D6134, SIGMA), at a density of 1×10^6 cells/ml.
The correlation between extracellular lactate level of 2DG-treated Jurkat cells and a resultant cell proliferation rate after 24 hours was investigated.

Jurkat cells [4] = experiment: pH sensing of drug-treated Jurkat cells (reductant-added medium, nanowire FET); conditions: 24-hour monitoring, culture medium
Source text: A conversion of the modified FET into a pH sensor was achieved by using a reductant-added solution. After supplementing a culture medium with 0.1% v/v DEHA to reduce the modified FET surface, surface proton density varied by protonation or by deprotonation dominantly changes the measured current.
For pH sensing, 0.1% v/v DEHA was supplemented in the sensing medium to reduce the 9,10-anthraquinone monolayer on the FET surface to obtain 9,10-dihydroxyanthracene (see also FIG. 1d) and H2O2 simultaneously. Therefore, no significant amount of H2O2 in a DEHA-supplemented medium altered a measured signal. As a result, surface proton density, varied by protonation or by deprotonation, dominantly changes an acquired signal.

Row | Compound | ROS level (Jurkat cells [1]) | cell viability (Jurkat cells [2]) | cell proliferation rate (Jurkat cells [2]; after 24 hours, relative cell count = count at t=24 hours / initial count) | cellular lactate secretion (Jurkat cells [3]) | pH of treated cells versus control (Jurkat cells [4])
1 | CN(Cc1cnc2nc(N)nc(N)c2n1)c1ccc(C(=O)N[C@@H](CCC(=O)O)C(=O)O)cc1 [MTX, methotrexate hydrate] | noticeable decrease | anti-proliferative activity |  |  | 
2 | O=CC[C@@H](O)[C@H](O)[C@H](O)CO [2DG, 2-deoxy-D-glucose] | noticeable decrease | anti-proliferative activity | reduced | decreased | more basic than the control
